Reference: patent US20250100962A1 (CITY OF HOPE, priority 2023, published 2025)

Legend:
Wnt signaling activity [1] = assay: TOPFlash luciferase reporter (Wnt activity) in U2OS cells; format: cell-based; conditions: for TOPFlash reporter activity, Wnt3a-containing media: Wnt3a stimulated; for TOPFlash Wnt activity, basal condition: without Wnt stimulation
Experimental: FIGS. 20A-20F. Effect of CM002 on activating circadian clock function. […] We tested the effect of CM002 from 0.2-5 μM on clock modulation in […] cells containing Per2::dLuc reporter using Lumicycle by monitoring chemiluminescence recordings for 6 days. The results were presented using the average original luminescence (FIG. 20A) or baseline-adjusted presentation (FIG. 20B). […] Based on the known clock effect on stimulating Wnt signaling activity, we used a TCF4 promoter-driven TOPFlash luciferase reporter to determine the effect of CM002 on Wnt pathway and compared this activity with CHX.
(§1) TOPFlash luciferase reporter assay. M50 Super 8×TOPFlash luciferase reporter containing Wnt-responsive TCF bindings sites was a gift from Randall Moon (Veeman, Slusarski, Kaykas et al., 2003) obtained from Addgene (Addgene plasmid #12456). Cells were seeded and grown overnight, and cell transfection was performed at 90% confluency. 24 hours following transfection, cells were treated using 10% Wnt3a conditioned media obtained from L Wnt-3A cell line (ATCC CRL-2647) to induce luciferase activity. Luciferase activity was assayed using Dual-Luciferase Reporter Assay Kit (Promega) in 96-well black plates. TOPFlash luciferase reporter luminescence was measured on microplate reader (TECAN infinite M200pro) and normalized to control FOPFlash activity, as previously described (Guo et al., 2012). The mean and standard deviation values were calculated for each well and graphed.

Wnt signaling activity [2] = assay: TOPFlash luciferase reporter assay (Example 3); format: cell-based; conditions: for TOPFlash reporter activity, Wnt-stimulated: Wnt3a media
Experimental: as §1

[3] = tested on: C3H10T1/2 cells containing Per2::dLuc luciferase reporter; assay: Bioluminescence monitoring of Per2::dLuc reporter in C3H10T1/2 cells; format: cell-based; conditions: 10T1/2 cells
Experimental: Generation of stable adipogenic progenitor cell lines containing Per2::dLuc. 3T3-L1 preadipocytes and the C3H10T1/2 mesenchymal stem cells obtained from ATCC were used for Per2:: dLuc lentiviral transduction and stable clone selection using puromycin, as described previously (Guo et al., 2012). Briefly, cells were transfected with lentiviral packaging plasmids (pSPAX.2 and pMD2.G) and lentivirus vectors Per2::dLuc using PEI Max (Polysciences). At 48 hours post-transfection, lentiviruses were collected. 3T3-L1 and C3H10T1/2 […] cells were infected using collected lentiviral media supplemented with polybrene. 24 hours following lentiviral infection, stable cell lines were selected in the presence of 2 μg/ml puromycin.
Continuous Bioluminescence monitoring of Per2:: dLuc luciferase reporter. 3T3-L1 and C3H10T1/2 cells containing a Per2::dLuc luciferase reporter were generated as described previously (Xiong et al., 2023). […] Raw and subtracted results of real-time bioluminescence recording data for 6 days were exported, and data was calculated as luminescence counts per second, as previously described (Xiong, Li, Nam et al., 2022). […] Briefly, raw data following the first cycle from day 2 to […] were fitted to a linear baseline, and the baseline-subtracted data (polynomial number=1) were fitted to a sine wave, from which period length and goodness of fit and damping constant were determined.

3T3-L1 preadipocytes = assay: Clock and Wnt gene expression in 3T3-L1 cells; format: cell-based; conditions: RT-qPCR
Experimental: RNA extraction and RT-qPCR analysis. PureLink RNA Mini Kit (Invitrogen) were used to isolate total RNA from cells. cDNA was generated using Revert Aid RT kit (ThermoFisher) and quantitative PCR was performed using SYBR Green Master Mix (Thermno Fisher) in triplicates on ViiA 7 Real-Time PCR System (Applied Biosystems). Relative expression levels were determined using the comparative Ct method with normalization to 361B4 as internal control.

C3H10T1/2 cells = assay: Adipogenic differentiation of C3H10T1/2 mesenchymal precursors; format: cell-based; conditions: for adipogenic factors C/EBPα and PPARγ / mature adipocyte marker expression (FASN): 1 μM, immunoblot; for adipogenic factors C/EBPα and PPARγ: day 7 differentiated; for mature adipocyte formation / lipid accumulation: day 8, oil-red-O and Bodipy
Experimental: Cell culture and adipogenic differentiation. 3T3-L1 and C3H10T1/2 cell lines were obtained from ATCC, and maintained in DMEM with 10% fetal bovine serum supplemented with 1% Penicillin-Streptomycin-Glutamine, as previously described (Nam, Guo, Chatterjee et al., 2015; Liu, Xiong, Nam et al., 2020). 0.25% Trypsin was used for digestion and passaging of these cell lines. For adipogenic differentiation induction media (1.6 μM insulin, 1 μM dexamethasone, 0.5 mM IBMX, 0.5 uM Rosiglitazone) was used for 3 days followed by maintenance medium with insulin for 3 days for 3T3-L1 and 5 days for C3H10T1/2 cells, as previously described (Liu et al., 2020).
Oil-red-O and Bodipy staining. These stainings for neutral lipids during adipogenic differentiation were performed as previously described (Nam et al., 2015). Briefly, for oil-red-O staining, cells were fixed using 10% formalin and incubated using 0.5% oil-red-O solution for 1 hour. Bodipy 493/503 was used at 1 mg/L together with DAPI for 15 minutes, following 4% paraformaldehyde fixation and permeabilization with 0.2% triton-X100.
Immunoblot analysis. Total protein was extracted using lysis buffer containing 3% NaCl, 5% Tris-HCl, 10% Glycerol, 0.5% Triton X-10 in MilliQ water with protease inhibitor cocktail. 20-40 μg of total protein was resolved on 10% SDS-PAGE gels followed by immunoblotting on PVDF membranes (Bio-rad). Membranes were developed by chemiluminescence (SuperSignal West Pico, Pierce Biotechnology) and signals were obtained via a chemiluminescence imager (Amersham Imager 680, GE Biosciences).

[4] = tested on: primary myoblasts derived from patients with Duchene Muscular Dystrophy; assay: Myogenic induction in human DMD primary myoblasts (immunoblot); format: cell-based; conditions: 3 days of differentiation
Excerpt: FIGS. 40A-40B. Chlorhexidine and CM002 promote myogenic induction in human DMD primary myoblasts. Using primary myoblasts derived from patients with Duchene Muscular Dystrophy, we determined the effect of Chlorhexidine and CM002 on promoting myogenic induction.

mdx mice = assay: Maximal lethal dose by daily intraperitoneal injection in mdx mice; format: in vivo
Experimental: FIGS. 48A-48C. Systemic delivery of CM002 by intraperitoneal injection improves muscle strength in dystrophic mdx mice. Based on the PK analysis, we determined the maximal lethal dose in mdx mice via daily intraperitoneal injections using escalating doses. Starting doses were tested at 10, 20 and 30 mg/Kg/day, for 3 consecutive days in male or female mdx mice (FIG. 48A).

Compound | TOPFlash reporter activity, Wnt3a-containing media (Wnt signaling activity [1]) | TOPFlash Wnt activity, basal condition (Wnt signaling activity [1]) | TOPFlash reporter activity, basal condition (Wnt signaling activity [2]) | TOPFlash reporter activity, Wnt-stimulated (Wnt signaling activity [2]) | clock period length [3] | clock cycling amplitude ([3]; 1 and 2 μM) | core clock gene expression (3T3-L1 preadipocytes) | adipogenic factors C/EBPα and PPARγ (C3H10T1/2 cells) | mature adipocyte marker expression (FASN) (C3H10T1/2 cells) | adipogenic maturation, early stage (C3H10T1/2 cells; 5 days after adipogenic induction, oil-red-O) | mature adipocyte formation / lipid accumulation (C3H10T1/2 cells) | MyoD and Myogenin protein (myogenic factors) [4] | Bmal1 protein expression ([4]; 0.2 and 0.5 μM) | lethality at 20 mg/kg (mdx mice; IP injection) | lethality at 30 mg/kg (mdx mice; IP injection) | lethal dose (mdx mice; intraperitoneal, 3 consecutive days) | tolerability at 10 mg/kg (mdx mice; male mice of 10-14 weeks, IP)
[H]/N=C(\N/C(=N/[H])NCCCCCCNC(=N)NC(=N)Nc1ccc(Cl)cc1)Nc1ccc(Cl)cc1 [CHX, chlorhexidine] | significantly induced | augmented Wnt activity at basal condition | could induce Wnt signaling activity | could induce Wnt signaling activity | dose-dependent clock period shortening, with this effect significant only for 1 and 2 μM | augment clock cycling amplitude | Largely similar effects on inducing core clock genes | significantly impaired levels of adipogenic factors | attenuated expression of fatty acid synthase | dose-dependent inhibition of adipogenic maturation | attenuated mature adipocyte formation | – | – | – | – | – | –
CCCCCC/C=N/C(=N)NC(=N)Nc1ccc(Cl)cc1 [CM002] | 0.1 μM of CM002 comparable to that of CHX induction at 1 μM | augmented Wnt activity at basal condition | sufficient to stimulate TOPFlash reporter activity to a similar degree as CHX | at lower concentrations at 0.1 and 0.2 μM were sufficient to induce TOPFlash reporter activity comparable to that of CHX at 0.5 μM | – | – | – | strong inhibition of adipogenic factors C/EBPα and PPARγ | substantially lower | – | markedly suppressed their differentiation in a dose-dependent manner | Robust inductions of MyoD and Myogenin protein | significantly elevated protein expression of Bmal1 | young adult mice at 14 weeks of age were succumbed to death, while older mice over 6 months of age survived | most mice injected at 30 mg/kg deceased | over 20 mg/kg/day | tolerated 10 mg/kg well without any lethality
